Where two headings read alike, the source gives them in different places.
Experiments:
cell toxicity CC50 = assay type: cell-based; settings: human; Hep-G2 cells; mean of at least two experiments; read-out: Cell Cytotoxicity CC50
[1] = Liver microsomal stability, human; assay type: in vitro ADME; settings: human liver microsomes 0.5 mg/mL, 1 μM compound, NADPH, up to 45 min; for half-life at 1 μM: pooled liver microsomes, pH 7.4, read-out: Liver Microsomal Stability t½
Procedure: (§1) Compounds were subjected to the following assays to investigate liver microsomal stability and hepatocyte stability.
(§2) Pooled liver microsomes were purchased from a reputable commercial supplier and stored at −80° C. prior to use. Microsomes (final protein concentration 0.5 mg/mL), 0.1 M phosphate buffer pH 7.4 and test compound (final substrate concentration 1 μM; final DMSO concentration 0.25%) were pre-incubated at 37° C. prior to the addition of NADPH (final concentration 1 mM) to initiate the reaction. The final incubation volume was 50 μL. A control incubation was included for each compound tested where 0.1 M phosphate buffer pH 7.4 was added instead of NADPH (minus NADPH). Two control compounds were included with each species. All incubations were performed singularly for each test compound. Each compound was incubated for 0, 5, 15, 30 and 45 min. The control (minus NADPH) was incubated for 45 min only. The reactions were stopped by transferring incubate into acetonitrile at the appropriate time points, in a 1:3 ratio. The termination plates are centrifuged at 3,000 rpm for 20 min at 4° C. to precipitate the protein. Following protein precipitation, the sample supernatants were combined in cassettes of up to 4 compounds, internal standard added, and samples analysed by LC-MS/MS. From a plot of ln peak area ratio (compound peak area/internal standard peak area) against time, the gradient of the line was determined. Subsequently, half-life (t1/2) and intrinsic clearance (CLint) were calculated.

[2] = Liver microsomal stability, rat; assay type: in vitro ADME; settings: rat liver microsomes 0.5 mg/mL, 1 μM compound, NADPH, up to 45 min; for half-life at 1 μM: pooled liver microsomes, pH 7.4, read-out: Liver Microsomal Stability t½
Procedure: as §1, §2

[3] = Liver microsomal stability, dog; assay type: in vitro ADME; settings: dog liver microsomes 0.5 mg/mL, 1 μM compound, NADPH, up to 45 min; for half-life at 1 μM: pooled liver microsomes, pH 7.4, read-out: Liver Microsomal Stability t½
Procedure: as §1, §2

[4] = Hepatocyte stability, rat; assay type: in vitro ADME; settings: rat hepatocytes 0.5×10^6 viable cells/mL, 3 μM compound, up to 60 min; for half-life at 3 μM: cryopreserved pooled hepatocytes, read-out: Liver Hepatocyte Stability t½
Procedure: as §1
(§3) Hepatocyte Incubation: Experimental Procedure
(§4) Cryopreserved pooled hepatocytes were purchased from a reputable commercial supplier and stored in liquid nitrogen prior to use. Williams E media supplemented with 2 mM L-glutamine and 25 mM HEPES and test compound (final substrate concentration 3 μM; final DMSO concentration 0.25%) are pre-incubated at 37° C. prior to the addition of a suspension of cryopreserved hepatocytes (final cell density 0.5×10^6 viable cells/mL in Williams E media supplemented with 2 mM L-glutamine and 25 mM HEPES) to initiate the reaction. The final incubation volume is 500 μL. Two control compounds were included with each species, alongside appropriate vehicle control. The reactions are stopped by transferring 50 μL of incubate to 100 μL acetonitrile containing internal standard at the appropriate time points. Samples were removed at 6 time points (0, 5, 15, 30, 45 and 60 min) over the course of a 60 min experiment. The termination plates are centrifuged at 2500 rpm at 4° C. for 30 min to precipitate the protein. Following protein precipitation, the sample supernatants were combined in cassettes of up to 4 compounds and analysed using generic LC-MS/MS conditions. From a plot of ln peak area ratio (compound peak area/internal standard peak area) against time, the gradient of the line is determined. Subsequently, half-life (t½) and intrinsic clearance (CLint) were calculated.

[5] = Hepatocyte stability, human; assay type: in vitro ADME; settings: human hepatocytes 0.5×10^6 viable cells/mL, 3 μM compound, up to 60 min; for half-life at 3 μM: cryopreserved pooled hepatocytes, read-out: Liver Hepatocyte Stability t½
Procedure: as §1, §3, §4

[6] = Rat pharmacokinetics in vivo (IV 1 mg/kg, PO 10 mg/kg); design: species or system Male rats [Sprague Dawley (SD)]; settings: male SD rat; for AUC(0-t): read-out: PO AUClast; for Cmax: PO 10 mg/kg study; for concentration at 8 h: read-out: C 8 h; for F: PO 10 mg/kg vs IV 1 mg/kg
Procedure: The pharmacokinetics of compounds were studied in vivo in rats at doses of 1 mg/kg (IV) and 10 mg/kg (PO).
Male rats [Sprague Dawley (SD)] surgically prepared with a jugular vein cannula were treated with experimental compounds via intravenous administration (IV; n=3; 1 mg/kg) or oral administration (PO; n=3; 10 mg/kg). Compounds were formulated as a solution in 40:60 dimethylacetamide:saline (IV administration) and a solution of 10% DMSO, 10% cremaphor in water (80%) (PO administration). […] Serial blood samples were collected via the cannula at 0.02, 0.08, 0.25, 0.5, 1, 2, 4, 6, 8 and 24 h post IV dosing of compound, and at 0.08, 0.25, 0.5, 1, 2, 4, 6, 8 and 24 h post oral dosing of compound, and plasma was prepared by centrifugation and stored immediately at −80° C. Samples were subsequently thawed, prepared for analysis by protein precipitation with acetonitrile, and analysed by tandem LCMS using electrospray ionisation using a matrix-matched calibration curve. PK parameters were calculated from the resulting data.

[7] = Hepatocyte stability, dog; assay type: in vitro ADME; settings: dog hepatocytes 0.5×10^6 viable cells/mL, 3 μM compound, up to 60 min; for half-life at 3 μM: cryopreserved pooled hepatocytes, read-out: Liver Hepatocyte Stability t½
Procedure: as §1, §3, §4

[8] = test system: RSV (RSV A2 ECACC, 0709161v); test: RSV plaque reduction assay; assay type: cell-based, respiratory syncytial virus; settings: mean of at least two experiments unless noted (n = 1)
In short: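 Hep-G2 monolayers infected with 100 PFU/well RSV A2 premixed with eight serial compound dilutions (2 h, 37° C.), then kept 2 days under CMC overlay with compound in DMEM/2% FBS. Plaques immunostained (HRP/TrueBlue) and counted; % infection versus virus control gives EC50, mean of at least two experiments, rounded.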

RSV = settings: Antimicrobial Agents and Chemotherapy, September 2007, 3346-3353; cited from earlier work
Hep-G2 cells = test: cell toxicity CC50; assay type: cell-based; settings: mean of at least two experiments, read-out: Cell Cytotoxicity CC50
[9] = Sprague Dawley, plasma, IV 1 mg/kg
[10] = Sprague Dawley, plasma, IV 1 mg/kg, read-out: IV t½ (converted)
[11] = Sprague Dawley, plasma, IV 1 mg/kg, read-out: Vd
[12] = Sprague Dawley, plasma, PO 10 mg/kg
[13] = Sprague Dawley, plasma, PO 10 mg/kg, read-out: PO t½ (converted)
[14] = Sprague Dawley, plasma, IV 1 mg/kg, read-out: Cmax
[15] = human respiratory syncytial virus, HepG2, read-out: RSV A2 Plaque EC50, RSV A2 in Hep-G2 cells
[16] = RSV A2 in Hep-G2 cells, read-out: RSV A2 Plaque EC50

Row | Compound | CC50 (cell toxicity CC50) | half-life at 1 μM [1] | half-life at 1 μM [2] | half-life at 1 μM [3] | half-life at 3 μM [4] | half-life at 3 μM [5] | clearance [6, 9] | half-life [6, 10] | Vd [6, 11] | AUC(0-t) [6, 12] | half-life [6, 13] | Cmax [6, 14] | concentration at 8 h ([6]; Sprague Dawley, plasma at 8 h) | F [6] | half-life at 3 μM [7] | EC50 [8, 15] | CC50 (Hep-G2 cells) | EC50 [8, 16] | also measured
1 | C[C@@H]1CCn2nc(-c3ccccc3F)c(C(=O)N[C@H]3N=C(c4ccccc4)c4cccc(F)c4NC3=O)c2O1 [Example 25, (5R)-N-[(3S)-9-fluoro-2-oxo-5-phenyl-1,3-dihydro-1,4-benzodiazepin-3-yl]-2-(2-fluorophenyl)-5-methyl-6,7-dihydro-5H-pyrazolo[5,1-b][1,3]oxazine-3-carboxamide] | > 25 µM | 16.8 h | > 2.33 h | > 2.33 h | 1.8 h | 4.73 h | 4.7 mL/min/kg | 2.2 h | 0.6 L/kg | 14900 ng·h/mL | 3.4 h | 1880 ng/mL | 812 ng/mL | 40.3% | > 3.1 h | 0.024 µM |  |  | 
2 | C[C@H]1CCn2nc(-c3ccccc3F)c(C(=O)N[C@H]3N=C(c4ccccc4)c4cccc(F)c4NC3=O)c2O1 [Example 27, (5S)-N-[(3S)-9-fluoro-2-oxo-5-phenyl-1,3-dihydro-1,4-benzodiazepin-3-yl]-2-(2-fluorophenyl)-5-methyl-6,7-dihydro-5H-pyrazolo[5,1-b][1,3]oxazine-3-carboxamide] | > 25 µM | 2.25 h | 1.4 h | 7.72 h | 8.08 h | > 3.1 h | 24.9 mL/min/kg | 0.72 h | 0.9 L/kg | 3140 ng·h/mL | 2.8 h | 960 ng/mL | 75.9 ng/mL | 49.6% | > 3.1 h | 0.02 µM |  |  | 
3 | CCc1ccc(-c2nn3c(c2C(=O)N[C@H]2N=C(c4ccccc4)c4cccc(F)c4NC2=O)OCCC3)cn1 [Example 106, 2-(6-Ethylpyridin-3-yl)-N-[(3S)-9-fluoro-2-oxo-5-phenyl-1,3-dihydro-1,4-benzodiazepin-3-yl]-6,7-dihydro-5H-pyrazolo[5,1-b][1,3]oxazine-3-carboxamide] | > 25 µM | 3.1 h | 0.815 h | 1.82 h | 1.59 h | > 3.1 h | 14.6 mL/min/kg | 1.2 h | 0.7 L/kg | 5690 ng·h/mL | 3.6 h | 1030 ng/mL | 271 ng/mL | 59.4% | 2 h | 0.048 µM |  |  | 
4 | O=C(Nc1ccccc1F)N[C@H]1N=C(c2ccccc2)c2ccccc2NC1=O [RSV604] |  |  |  |  |  |  |  |  |  |  |  |  |  |  |  |  |  |  | anti-RSV activity (RSV): sub-micromolar anti-RSV activity
5 | (5R)-2-(3-Fluoropyridin-4-yl)-5-methyl-N-[(3S)-9-fluoro-2-oxo-5-phenyl-1,3-dihydro-1,4-benzodiazepin-3-yl]-6,7-dihydro-5H-pyrazolo[5,1-b][1,3]oxazine-3-carboxamide [Example 51] |  |  |  |  |  |  |  |  |  |  |  |  |  | 44.3% |  |  | > 25 µM | 0.08 µM | Liver Microsomal Stability t½ [1]: 1.04 h; Liver Microsomal Stability t½ [2]: 1.1 h; Liver Microsomal Stability t½ [3]: > 2.33 h; Liver Hepatocyte Stability t½ [4]: 1.88 h; Liver Hepatocyte Stability t½ [5]: 1.47 h; Cl ([6]; IV 1 mg/kg): 46.4 mL/min/kg; IV t½ ([6]; IV 1 mg/kg): 0.48 h; Vd ([6]; IV 1 mg/kg): 1.0 L/kg; PO AUClast ([6]; PO 10 mg/kg): 1582 ng·h/mL; PO t½ ([6]; PO 10 mg/kg): 1.1 h; Cmax ([6]; IV 1 mg/kg): 730 ng/mL; C 8 h ([6]; plasma at 8 h): 7.6 ng/mL; Liver Hepatocyte Stability t½ [7]: 16.4 h
6 | N-[(3S)-9-fluoro-2- oxo-5-phenyl-1,3- dihydro-1,4- benzodiazepin-3-yl]- 2-(2-fluorophenyl)- 6-(pyrrolidin-1- ylmethyl)-6,7- dihydro-5H- pyrazolo[5,1- b][1,3]oxazine-3- carboxamide [Example 182] |  |  |  |  |  |  |  |  |  |  |  |  |  |  |  |  | 20.1 µM | 0.078 µM | 
7 | tert-butyl N-[3- [[(3S)-9-fluoro-2- oxo-5-phenyl-1,3- dihydro-1,4- benzodiazepin-3- yl]carbamoyl]-2-(2- fluorophenyl)-6,7- dihydro-5H- pyrazolo[5,1- b][1,3]oxazin-6-yl]- N-methylcarbamate [Example 107] |  |  |  |  |  |  |  |  |  |  |  |  |  |  |  |  | > 25 µM | 0.093 µM | 

— US12678446B2 (PFIZER INC., priority 2020, dated 2026)
